Test results: patent US20160194358A1, “LINEAR PEPTIDE ANTIBIOTCS” (priority 2013, published 2016)
≈ marks a conversion by molar mass, not a printed value. Where two headings read alike, the source gives them in different places. Where a SMILES comes first, the peptide text is derived from it. The star is where a group is joined. boroAla((+)-pinanediol) = C[C@H](N*)B1O[C@@H]2C[C@@H]3C[C@@H](C3(C)C)[C@]2(C)O1; Propanoyl(3-decylamino) = CCCCCCCCCCNCCC(=O)*

What was measured:
MRSA strain USA300 [1] = details: 0.5 ug/mL imipenem plus 0.125 ug/mL Compound 217
Protocol: Time-kill experiments were performed in 96-well incubation plates using Mueller Hinton II Broth+0.002% Tween-80 as the growth media. Individual wells contained imipenem alone, Compound 217 alone, or a combination of both agents at various concentrations. MRSA strain USA300 was grown overnight at 35° C. on Mueller Hinton Agar plates, and colonies were suspended in Mueller Hinton II Broth+0.002% Tween-80 to a final density of 2*10^8 cfu/mL. To each well of the incubation plates, 5 uL of this suspension were added, resulting in an initial density of 1*10^7 cfu/mL. Plates were incubated at 35° C., and at various time points 30 μl samples were removed, mixed 1:1 with 25 mg/ml activated carbon, serially diluted in sterile phosphate buffered saline supplemented with 0.05% Tween 20, and spotted onto Mueller Hinton Agar plates to enable cfu quantification. Colonies were counted and the cfu/ml at each time point calculated by based on the dilution factor and volume spotted.

[2] = test system: methicillin resistant Staphylococcus aureus (MRSA) strain USA300 (NRS384); details: MRSA USA300 (NRS384); 35° C., 22 hours
In short: (§1)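 CLSI broth microdilution in cation-adjusted Mueller Hinton Broth with 0.002% Tween-80, two-fold dilutions starting at 64 μg/ml.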

[3] = test system: Escherichia coli strain MC4100 IMP-4213, which harbors an LptD mutation; details: E. coli MC4100 IMP-4213; 35° C., 22 hours
In short: as §1

MRSA strain USA300 [4] = test system: MRSA strain USA300
MRSA strain USA300 [5] = details: Compound 217 with imipenem, synergy defined as sum of FICs ≦0.5
Protocol: In this assay in each axis of a 96-well plate contains a 2-fold dilution of a given agent, such that each well contains a unique combination of the agents being tested.
To create a checkerboard dilution scheme, imipenem was diluted in Mueller Hinton II Broth+0.002% Tween-80 to twice the final desired concentration, and six 2-fold serial dilutions were performed in the same media yielding seven imipenem concentrations. Dilutions of Compound 217 were prepared similarly except that ten dilutions were performed for a total of eleven concentrations. For each concentration of imipenem, 50 uL aliquots were transferred to columns 1-12 of a given row of a 96-well clear polypropylene assay plate. For each concentration of Compound 217, 50 uL were transferred to rows A-H of a given column of the same plate. […]
MRSA strain USA300 was grown overnight at 35° C. on Mueller Hinton Agar plates, and colonies were suspended in Mueller Hinton II Broth+0.002% Tween-80 to a final density of 1*10^7 cfu/ml. […] The plate was incubated at 35° C. for 22 hours after which growth was determined via visual inspection. For each sub-MIC concentration of imipenem, the concentration of Compound 217 required to prevent visible growth was recorded, and the fractional inhibitor concentration (FIC) of each agent was calculated by dividing the concentration of each agent by MIC of the agent alone. […]

[6] = MRSA USA300, partner Amoxicillin/Clav at 1/4x its MIC
[7] = MRSA USA300, partner Ampicillin at 1/4x its MIC
[8] = MRSA USA300, partner Azlocillin at 1/4x its MIC
[9] = MRSA USA300, partner Biapenem at 1/4x its MIC
[10] = MRSA USA300, partner Carbenicillin at 1/4x its MIC
[11] = MRSA USA300, partner Cefaclor at 1/4x its MIC
[12] = MRSA USA300, partner Cefamandole at 1/4x its MIC
[13] = MRSA USA300, partner Cefazolin at 1/4x its MIC
[14] = MRSA USA300, partner Cefdinir at 1/4x its MIC
[15] = MRSA USA300, partner Cefepime at 1/4x its MIC
[16] = MRSA USA300, partner Cefixime at 1/4x its MIC
[17] = MRSA USA300, partner Cefmetazole at 1/4x its MIC
[18] = MRSA USA300, partner Cefonicid at 1/4x its MIC
[19] = MRSA USA300, partner Cefotaxime at 1/4x its MIC
[20] = MRSA USA300, partner Cefotetan at 1/4x its MIC
[21] = MRSA USA300, partner Cefoxitin at 1/4x its MIC
[22] = MRSA USA300, partner Cefpodoxime at 1/4x its MIC
[23] = MRSA USA300, partner Cefprozil at 1/4x its MIC
[24] = MRSA USA300, partner Ceftazidime at 1/4x its MIC
[25] = MRSA USA300, partner Ceftizoxime at 1/4x its MIC
[26] = MRSA USA300, partner Ceftriaxone at 1/4x its MIC
[27] = MRSA USA300, partner Cephalothin at 1/4x its MIC
[28] = MRSA USA300, partner Doripenem at 1/4x its MIC
[29] = MRSA USA300, partner Ertapenem at 1/4x its MIC
[30] = MRSA USA300, partner Faropenem at 1/4x its MIC
[31] = MRSA USA300, partner Imipenem at 1/4x its MIC
[32] = MRSA USA300, partner Mecillinam at 1/4x its MIC
[33] = MRSA USA300, partner Meropenem at 1/4x its MIC
[34] = MRSA USA300, partner Methicillin at 1/4x its MIC
[35] = MRSA USA300, partner Mezlocillin at 1/4x its MIC
[36] = MRSA USA300, partner Moxalactam at 1/4x its MIC
[37] = MRSA USA300, partner Oxacillin at 1/4x its MIC
[38] = MRSA USA300, partner Piperacillin/tazobactam at 1/4x its MIC
[39] = MRSA USA300, partner Ticarcillin at 1/4x its MIC

CCCCCCCCCCNCCC(=O)N[C@@H](CCCCN)C(=O)N[C@H](C(=O)N[C@@H](C)C(=O)N[C@@H](CCCCN)C(=O)N[C@@H](C)B1O[C@@H]2C[C@@H]3C[C@@H](C3(C)C)[C@]2(C)O1)[C@@H](C)O [Compound 217] ({Propanoyl(3-decylamino)}-KTAK-{boroAla((+)-pinanediol)})
time-kill: reduction of viable cells, combination vs either agent alone (MRSA strain USA300 [1]): synergistic
MIC (μg/mL) S. aureus [2]: 0.31 µg/mL (≈ 0.359 µM)
MIC (μg/mL) E. coli [3]: 23 µg/mL (≈ 26.7 µM)
Compound 217 SIC (MRSA strain USA300 [4]; [6]): 0.125 µg/mL
Fold reduction in Compound 217 MIC (MRSA strain USA300 [4]; [6]): 4
Compound 217 SIC (MRSA strain USA300 [4]; [7]): 0.25 µg/mL
Fold reduction in Compound 217 MIC (MRSA strain USA300 [4]; [7]): 2
Compound 217 SIC (MRSA strain USA300 [4]; [8]): 0.125 µg/mL
Fold reduction in Compound 217 MIC (MRSA strain USA300 [4]; [8]): 4
Compound 217 SIC (MRSA strain USA300 [4]; [9]): 0.0156 µg/mL
Fold reduction in Compound 217 MIC (MRSA strain USA300 [4]; [9]): 32
Compound 217 SIC (MRSA strain USA300 [4]; [10]): 0.125 µg/mL
Fold reduction in Compound 217 MIC (MRSA strain USA300 [4]; [10]): 4
Compound 217 SIC (MRSA strain USA300 [4]; [11]): 0.125 µg/mL
Fold reduction in Compound 217 MIC (MRSA strain USA300 [4]; [11]): 4
Compound 217 SIC (MRSA strain USA300 [4]; [12]): 0.125 µg/mL
Fold reduction in Compound 217 MIC (MRSA strain USA300 [4]; [12]): 4
Compound 217 SIC (MRSA strain USA300 [4]; [13]): 0.0625 µg/mL
Fold reduction in Compound 217 MIC (MRSA strain USA300 [4]; [13]): 8
Compound 217 SIC (MRSA strain USA300 [4]; [14]): 0.0078 µg/mL
Fold reduction in Compound 217 MIC (MRSA strain USA300 [4]; [14]): 64
Compound 217 SIC (MRSA strain USA300 [4]; [15]): 0.03125 µg/mL
Fold reduction in Compound 217 MIC (MRSA strain USA300 [4]; [15]): 16
Compound 217 SIC (MRSA strain USA300 [4]; [16]): 0.0625 µg/mL
Fold reduction in Compound 217 MIC (MRSA strain USA300 [4]; [16]): 8
Compound 217 SIC (MRSA strain USA300 [4]; [17]): 0.125 µg/mL
Fold reduction in Compound 217 MIC (MRSA strain USA300 [4]; [17]): 4
Compound 217 SIC (MRSA strain USA300 [4]; [18]): 0.125 µg/mL
Fold reduction in Compound 217 MIC (MRSA strain USA300 [4]; [18]): 4
Compound 217 SIC (MRSA strain USA300 [4]; [19]): 0.0625 µg/mL
Fold reduction in Compound 217 MIC (MRSA strain USA300 [4]; [19]): 8
Compound 217 SIC (MRSA strain USA300 [4]; [20]): 0.125 µg/mL
Fold reduction in Compound 217 MIC (MRSA strain USA300 [4]; [20]): 4
Compound 217 SIC (MRSA strain USA300 [4]; [21]): 0.125 µg/mL
Fold reduction in Compound 217 MIC (MRSA strain USA300 [4]; [21]): 4
Compound 217 SIC (MRSA strain USA300 [4]; [22]): 0.0625 µg/mL
Fold reduction in Compound 217 MIC (MRSA strain USA300 [4]; [22]): 8
Compound 217 SIC (MRSA strain USA300 [4]; [23]): 0.125 µg/mL
Fold reduction in Compound 217 MIC (MRSA strain USA300 [4]; [23]): 4
Compound 217 SIC (MRSA strain USA300 [4]; [24]): 0.125 µg/mL
Fold reduction in Compound 217 MIC (MRSA strain USA300 [4]; [24]): 4
Compound 217 SIC (MRSA strain USA300 [4]; [25]): 0.0625 µg/mL
Fold reduction in Compound 217 MIC (MRSA strain USA300 [4]; [25]): 8
Compound 217 SIC (MRSA strain USA300 [4]; [26]): 0.03125 µg/mL
Fold reduction in Compound 217 MIC (MRSA strain USA300 [4]; [26]): 16
Compound 217 SIC (MRSA strain USA300 [4]; [27]): 0.03125 µg/mL
Fold reduction in Compound 217 MIC (MRSA strain USA300 [4]; [27]): 16
Compound 217 SIC (MRSA strain USA300 [4]; [28]): 0.03125 µg/mL
Fold reduction in Compound 217 MIC (MRSA strain USA300 [4]; [28]): 16
Compound 217 SIC (MRSA strain USA300 [4]; [29]): 0.125 µg/mL
Fold reduction in Compound 217 MIC (MRSA strain USA300 [4]; [29]): 4
Compound 217 SIC (μg/ml) (MRSA strain USA300 [4]; [30]): ≦0.0039 μg/ml
Fold reduction in Compound 217 MIC (MRSA strain USA300 [4]; [30]): >128
Compound 217 SIC (MRSA strain USA300 [4]; [31]): 0.03125 µg/mL
Fold reduction in Compound 217 MIC (MRSA strain USA300 [4]; [31]): 16
Compound 217 SIC (MRSA strain USA300 [4]; [32]): 0.25 µg/mL
Fold reduction in Compound 217 MIC (MRSA strain USA300 [4]; [32]): 2
Compound 217 SIC (MRSA strain USA300 [4]; [33]): 0.01563 µg/mL
Fold reduction in Compound 217 MIC (MRSA strain USA300 [4]; [33]): 32
Compound 217 SIC (MRSA strain USA300 [4]; [34]): 0.125 µg/mL
Fold reduction in Compound 217 MIC (MRSA strain USA300 [4]; [34]): 4
Compound 217 SIC (MRSA strain USA300 [4]; [35]): 0.125 µg/mL
Fold reduction in Compound 217 MIC (MRSA strain USA300 [4]; [35]): 4
Compound 217 SIC (MRSA strain USA300 [4]; [36]): 0.03125 µg/mL
Fold reduction in Compound 217 MIC (MRSA strain USA300 [4]; [36]): 16
Compound 217 SIC (MRSA strain USA300 [4]; [37]): 0.0625 µg/mL
Fold reduction in Compound 217 MIC (MRSA strain USA300 [4]; [37]): 8
Compound 217 SIC (MRSA strain USA300 [4]; [38]): 0.125 µg/mL
Fold reduction in Compound 217 MIC (MRSA strain USA300 [4]; [38]): 4
Compound 217 SIC (MRSA strain USA300 [4]; [39]): 0.0625 µg/mL
Fold reduction in Compound 217 MIC (MRSA strain USA300 [4]; [39]): 8
Compound 217 MIC (MRSA strain USA300 [4]; MRSA strain USA300, partner beta-lactam: None): 0.5 mg/L
synergy with partner beta-lactam antibiotics (SIC ≤ 1/4 MIC) (MRSA strain USA300 [4]; partner beta-lactam at 1/4x its MIC): synergize
sum of the FICs (MRSA strain USA300 [5]): < 0.5
